Data reported in US11779582B2, “Composition for preventing or treating metastatic ovarian cancer, endometrial cancer or breast cancer” (LEMONEX INC., priority 2017, dated 2023).

Key:
Format in all cases: cell-based
[1] = tested on: sphere cultured SKOV3ip1 cells; assay: microscopic observation of aggregated (spheroid) form; conditions: 5 μM BGJ398, 3 μM TAE648, 5 μM imatinib (FIG. 5)
Description: (§1) For 3D sphere culture, SKOV3ip1 cells (1×10^6) were dispensed on ultra-low adherent 6-well plate (Corning NY, USA), and then, cultured in 5% CO2 incubator using RPMI 1640 medium supplemented with 10% fetal bovine serum (Gibco, NY, USA) and 10 U/ml penicillin/streptomycin (Gibco).

[2] = tested on: sphere cultured SKOV3ip1 ovarian cancer cells; assay: crystal violet cell viability, 3D sphere culture; conditions: for cell viability: sphere cultured SKOV3ip1, 72 hours, different concentrations, crystal violet colorimeter (FIG. 3)
Description: as §1
In order to assess the cell viability in the sphere cultured cells, the SKOV3ip1 cells (5×10^4) were dispensed on the super-low adherent 24-well plate and cultured overnight. The cells were harvested from each well and the commercial 24-well plate was moved, followed by further incubation for 12 hours. The adhered and visualized cells were stained with 0.2% crystal violet solution for 20 minutes while gently agitating the same. The stained cells were washed with distilled water until a clean background is observed. For assessment using a colorimeter, the crystal violet dye was extracted with 1% SDS/PBS and absorbance was measured at 570 nm wavelength by EMax PLUS microplate reader (Molecular Device, USA).
(§2) The monolayer cultured or sphere cultured SKOV3ip1 cells were treated with the tyrosine kinase inhibitor and paclitaxel for 72 hours, the cell viability was determined by the crystal violet colorimeter, and results thereof are shown in FIG. 3.
Since the cell survival of the sphere cultured SKOV3ip1 cells is inhibited by BGJ398 treatment, whether such cell survival inhibition is intermediated through JAK/STAT3 signaling pathway was further examined. For this purpose, the selective JAK tyrosine kinase inhibitor AG490 was used at different concentrations of 3.125 to 50 μM in order to treat the monolayer cultured or sphere cultured SKOV3ip1 cells, and after 72 hours, whether it affects the cell viability and AKT and STAT3 activation was examined through crystal violet staining and immunostaining assay, and results thereof are shown in FIG. 7. Actin was used as a loading control group.
Under this ground, when administering BGJ398 in combination with paclitaxel typically used as the existing primary anticancer drug for ovarian cancer, whether paclitaxel resistance of the sphere cultured cells is overcome and improved was determined.

[3] = tested on: monolayer cultured SKOV3ip1 ovarian cancer cells; assay: crystal violet cell viability, 2D monolayer culture; conditions: monolayer cultured SKOV3ip1, 72 hours, different concentrations, crystal violet colorimeter (FIG. 3)
Description: 2D monolayer culture was implemented in the following manner: cells were cultured at 37° C., 5% CO2 humidified atmosphere using RPMI 1640 medium (Corning, NY, USA) supplemented with 10% fetal bovine serum (Gibco, NY, USA) and 10 U/ml penicillin/streptomycin.
Crystal violet staining was implemented to determine the cell viability in the monolayer cultured cell model and sphere cultured cell model. In order to implement the crystal violet staining in the monolayer culture model, SKOV3ip1 cells (5×10^4) were dispensed in commercial 24-well plates and incubated overnight. Thereafter, the drug was dispensed with a desired concentration for experiment into each well, followed by further incubation for 72 hours. 300 μl of 0.2% crystal violet solution was added to each well, followed by further incubation for 20 minutes while gently stirring the same. The stained cells were washed with distilled water until a clean background is observed. For assessment using a colorimeter, the crystal violet dye was extracted with 1% SDS/PBS and absorbance was measured at 570 nm wavelength by EMax PLUS microplate reader (Molecular Device, USA).
as §2

[4] = tested on: AKT and STAT3 phosphorylation in sphere cultured SKOV3ip1 cells; assay: immunostaining of AKT and STAT3 phosphorylation, sphere culture; conditions: for phosphorylated AKT at Ser473: sphere cultured, 5 μM BGJ398, 3 μM TAE648, 5 μM imatinib, 72 hours (FIG. 6)
Text: In order to identify whether a change in signaling pathways associated with cell survival appears or not according to 2D monolayer culture (2D MC) and 3D sphere culture (3D SC), immunostaining was implemented. More particularly, after culturing SKOV3ip1 cells (1×10^6) by 2D monolayer culture or 3D sphere culture described in section 1.1, expression of cell-signaling molecules including AKT, STAT3, p42/44 ERK and p38 MAPK was detected and activation states in the monolayer cultured cells and the sphere cultured cells were compared. The monolayer cultured or sphere cultured SKOV3ip1 cells were harvested and washed once with ice-cold 1× phosphate buffered saline, followed by dissolving the same in 100 μl ice-cold RIPA buffer (20 mM Tris-Cl, pH 8.0, 125 mM NaCl, […], 1 mM ethylene diamine tetraacetic acid, 1% Triton X-100, 0.5% sodium deoxycholate, 0.1% sodium dodecyl sulfate, 1× complete protease inhibitor cocktail (Roche, Mannheim, Germany)) on ice. After assessing the protein concentration using a Bradford Protein assay kit (Biorad, CA, USA), the same amount of proteins (30 μg) was separated by SDS-PAGE and moved to a nitrocellulose membrane, followed by immunostaining the same using a horseradish peroxide conjugated second antibody and a specific antibody. An immune activation band was detected with SuperSignal West Pico Chemiluminescent Substrate (Thermo, IL, USA) using a Fusion Solo chemiluminescence analyzer (Vilber Rourmat Marne la Vallee, France). Antibodies to STAT3 (H-190), STAT3 (B-7) phosphorylated at Tyr705 and actin (C-2) were purchased from Santa Cruz Biotechnology. Rabbit monoclonal antibodies on AKT, AKT (D9E) phosphorylated at Ser473, FGFR1 phosphorylated at Tyr 653/654, p42/44 MAPK, phosphorylated p42/44 MAPK, p38 MAPK and p38 MAPK phosphorylated at Tyr 180/182 were purchased from Cell Signaling Technology (MA, USA). Further, HRP-conjugated goat anti-mouse and rabbit secondary antibodies were purchased from Jackson Laboratories, while BGJ398 used in the experiment (against FGFR1/2/3) was purchased from Selleckchem (USA).
Under this ground, in order to determine whether BGJ398 can vary the state of AKT and STAT3 in the sphere cultured SKOV3ip1 cells, the monolayer cultured (MC) or sphere cultured (SC) SKOV3ip1 cells were subjected to treatment using 5 μM BGJ398, followed by examining the degree of phosphorylation due to the above treatment.
Further, the sphere cultured SKOV3ip1 cells were treated with 5 μM BGJ398 (BGJ), 3 μM TAE648 (TAE) and 5 μM imatinib (IMT), respectively. After 72 hours, a cell lysate was obtained and subjected to immunostaining, followed by analyzing active cellular expression of AKT and STAT3 with the antibody for the same. Further, a phosphorylation level of FGFR1 was used as a positive control group relative to BGJ treatment groups while actin was used as a loading control group. The immunostaining assay procedure was implemented in the same manner as in Example 1.
Since the cell survival of the sphere cultured SKOV3ip1 cells is inhibited by BGJ398 treatment, whether such cell survival inhibition is intermediated through JAK/STAT3 signaling pathway was further examined. […]

[5] = tested on: SKOV3-TR; assay: crystal violet staining assay, cisplatin and BGJ398, 2D culture; conditions: 2D culture, cisplatin alone (FIG. 29)
Description: (§3) According to the same procedures as described in the previous examples, each cell line was subjected to 2D culture and a change thereof upon administration of cisplatin alone, BGJ398 alone or in combination with cisplatin was analyzed through crystal violet staining assay.

[6] = tested on: SKOV3ip1; assay: as above; conditions: SKOV3ip1, 2D culture, cisplatin alone (FIG. 29)
Description: as §3

[7] = tested on: SKOV3-TR ovarian cancer cells; assay: crystal violet cell viability in paclitaxel-resistant cells
Description: SKOV3-TR cell line was offered from Sood AK in MD-Anderson Cancer Center (USA) and then used in the present experiments.
Paclitaxel resistance of each of SKOV3 and SKOV3-TR was determined by measuring the cell viability through crystal violet colorimetric assay. This experiment was implemented three times and a difference in results thereof was estimated by student's t-test.
(§4) According to the same procedures as described in the previous examples, each cell line was divided and cultured by 2D monolayer culture and 3D sphere culture, respectively. Then, a change due to administration of BGJ398 alone or in combination with paclitaxel was analyzed through morphological analysis and crystal violet staining assay.

[8] = tested on: SKOV3-TR ovarian cancer cells; assay: microscopic analysis of cell shape change due to cytotoxicity; conditions: single agent: 2.5 μM BGJ398 or 50 nM paclitaxel (FIG. 20)
Description: as §4
FIG. 20 illustrates a change in cell shape due to cytotoxicity under microscopic analysis, when paclitaxel alone, BGJ398 alone or in combination with paclitaxel was administered to SKOV3-TR ovarian cancer cells.

| SMILES | aggregated (spheroid) form of cells [1] | cell viability [2] | cell viability [3] | phosphorylated AKT at Ser473 [4] | also measured |
| --- | --- | --- | --- | --- | --- |
| COc1cc(N2CCC(N3CCN(C)CC3)CC2)ccc1Nc1ncc(Cl)c(Nc2ccccc2S(=O)(=O)C(C)C)n1 [TAE684] | spheroid degradation was not observed | TAE648 resistance was not identified | reduced by paclitaxel and TAE648 in a dose-dependent manner | did not show such effects |  |
| Cc1ccc(NC(=O)c2ccc(CN3CCN(C)CC3)cc2)cc1Nc1nccc(-c2cccnc2)n1 [imatinib] | spheroid degradation was not observed | did not affect the cell viability | not effected | did not show such effects |  |
| N.N.[Cl][Pt][Cl] [cisplatin, reference compound] |  |  |  |  | sensitivity to cisplatin [5]: exhibit sensitivity to cisplatin; sensitivity to cisplatin [6]: exhibit sensitivity to cisplatin |
| CC(=O)O[C@H]1C(=O)[C@@]2(C)[C@H]([C@H](OC(=O)c3ccccc3)[C@]3(O)C[C@H](OC(=O)[C@H](O)[C@@H](NC(=O)c4ccccc4)c4ccccc4)C(C)=C1C3(C)C)[C@]1(OC(C)=O)CO[C@@H]1C[C@@H]2O [paclitaxel, reference compound] |  | more obviously resistant to paclitaxel than the monolayer cultured SKOV3ip1 cells | reduced by paclitaxel and TAE648 in a dose-dependent manner |  | paclitaxel resistance ([7]; SKOV3-TR compared with SKOV3, crystal violet colorimetric assay (FIG. 15)): significantly higher than SKOV cell line; anticancer activity ([7]; paclitaxel alone (FIGS. 18, 19)): negligible; cytotoxicity and morphological change [8]: negligible cytotoxicity and no morphological change |
| N#C/C(=C\c1ccc(O)c(O)c1)C(=O)NCc1ccccc1 [AG490, reference compound] |  |  |  |  | cell growth ([2]; sphere cultured SKOV3ip1, AG490 3.125 to 50 μM, 72 hours (FIG. 7A)): did not suppress cell growth; AKT and STAT3 phosphorylation ([4]; sphere cultured SKOV3ip1, 5 μM BGJ398 (FIG. 6), AG490, 72 hours (FIG. 7B)): not inhibited |
